Source: patent US6313153A, “Compositions and methods for treating nephritis and inhibiting TGF -β related conditions using pyridylacrylamide derivatives” (Tsumura & Co., priority 1997, dated 2001)
Structures can show the parent of a compound that is named as a salt.

How the values were obtained:
active TGF-β1 = assay: production of active TGF-β1 in glomeruli isolated from nephritic mice (ELISA); assay type: cell-based, BALB/c male mice; settings: Mus musculus, 10^-6 M, 48 hours, read-out: Inhibition rate (%) of production of active TGF-β1
Procedure: (§1) BALB/c male mice were adapted in a feeding chamber for 1 week before subjecting to experiments. Nephritis was induced by subcutaneously injecting an emulsion of rabbit γ-globulin and Freund's complete adjuvant on the back in a dose amount of 1.0 mg per mouse and, after 5 days (on the zeroth day), intravenously injecting rabbit anti-mouse GBM serum in a dose amount of 0.1 ml per mouse. After 1 day from the injection of anti-serum, the glomeruli were isolated through sieves with different sizes and washed twice. Each compound to be tested (10^-6 M) was added while the solvent was added to the control groups. The glomeruli were incubated in RPMI-1640 serum-free medium for 48 hours. The amount of production of active TGF-β1 was determined by measuring the supernatant itself after the incubation for 48 hours in ELSA method. Further, the supernatant was treated with hydrochloric acid and the pH was returned with sodium hydroxide. The total amount of TGF-β1 produced in the supernatant was measured in ELISA method. The protein concentration in the medium was also measured as glomeruli protein concentration. The inhibition rate was calculated by the following equation.
(§2) Inhibition rate (%)=100×(value of control group-value of sample)/(value of control group)

total TGF-β1 = assay: production of total TGF-β1 in glomeruli isolated from nephritic mice (ELISA); assay type: cell-based, BALB/c male mice; settings: Mus musculus, 10^-6 M, 48 hours, supernatant acid treated, read-out: Inhibition rate (%) of production of total TGF-β1
Procedure: as §1, §2

anti-GBM nephritic mice = assay: anti-GBM nephritic mice: proteinuria, serum cholesterol, blood urea nitrogen and serum creatinine; assay type: in vivo, BALB/c mice; settings: for Total Evaluation: 3 × (number of + in proteinuria) + (number of + in serum parameter); for Proteinuria 5th day: 5th day from intravenous injection of anti-GBM serum; for Proteinuria 5th day / Proteinuria 10th day / Serum Parameter BUN (blood urea nitrogen) / Serum Parameter S-Ch (serum cholesterol) / Serum Parameter S-Cr (serum creatinine): oral; for Proteinuria 10th day: 10th day from intravenous injection of anti-GBM serum; for Serum Parameter BUN (blood urea nitrogen) / Serum Parameter S-Ch (serum cholesterol) / Serum Parameter S-Cr (serum creatinine): 11th day;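 on Proteinuria 10th day: minus not effective plus trend double p<0.05 triple p<0.01 quadruple p<0.001 improvement vs control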;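 on Proteinuria 5th day: minus not effective plus trend double p<0.05 triple p<0.01 quadruple p<0.001 improvement vs control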;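 on Serum Parameter BUN (blood urea nitrogen): minus not effective plus trend double p<0.05 triple p<0.01 quadruple p<0.001 improvement vs control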;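 on Serum Parameter S-Ch (serum cholesterol): minus not effective plus trend double p<0.05 triple p<0.01 quadruple p<0.001 improvement vs control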
Procedure: BALB/c mice (5 weeks old, purchased from Nippon Charles Liver) were quarantined and adapted for about 1 week before subjecting to experiments. These mice were divided into several groups for the experiments so that average body weights and standard deviations were almost identical in all groups. Mouse anti-GBM (glomerular basement membrane) nephritis was caused by immunizing the mice with rabbit γ-globulin (1 mg) with Freund's complete adjuvant and intravenously injecting rabbit anti-mouse GBM serum on the fifth day from the immunization. Each compound tested was forcedly orally administered via an oral sonde almost simultaneously with the intravenous injection of the anti-GBM serum. On the 5th and 10th days from the intravenous injection, urine was taken by a plastic metabolic cage and proteinuria was measured (Ohtsuka Tonein TP2). On the 11th day, blood was taken by cutting the carotid and serum cholesterol (S--Ch), blood urea nitrogen (BUN) and serum creatinine (S--Cr) were measured by Toshiba TBA-380 autoanalyzer.

TGF-β1 = assay: Glomerular TGF-β1 Expression in IgA Nephropathy in Mice (immunohistochemical staining score); assay type: in vivo, Male ddY mice; settings: for staining score (Index), glomerular TGF-β1: 5 weeks, Mean ± S.E.
Description: Effects of the compounds of the present Invention on the Glomerular TGF-β1 Expression in IgA Nephropahty in Mice
Male ddY mice of 9 weeks old were used, each group consisting of 5 mice. One kidney was nephrectomized from the mice on the zero week, and carbon was intravenously injected from 1 week after the nephrectomy (once per week, total three times). In Experiment 1, administration was commenced on the final day of the intravenous injection of carbon. In Experiment 2, administration was commenced after the mice were allowed to stand for 10 weeks from the intravenous injection of carbon. In both Experiments, the administration was continued for 5 weeks and then the kidney was taken, fixed with […] and embedded in paraffin. Sliced specimens were stained as TGF-β1 positive area by the immunohistochemical analysis method using TGF-β1 antibody.
Staining was evaluated according to the Kagami et al. method (Kagami S., Border WA., Ruslahti E., Noble B.: Coordinated expression of β integrins and transforming growth factor-β induced matrix proteins in glomerulonephritis. Lab Invest 1993, 69, 68-76) and is shown as staining score (Index).

[1] = Experiment 2, 2.0 mg/kg, p < 0.05 vs control

| SMILES | inhibition at 1 µM (active TGF-β1) | inhibition at 1 µM (total TGF-β1) | Total Evaluation (anti-GBM nephritic mice) | Proteinuria 5th day (anti-GBM nephritic mice) | Proteinuria 10th day (anti-GBM nephritic mice) | Serum Parameter BUN (blood urea nitrogen) (anti-GBM nephritic mice) | Serum Parameter S-Ch (serum cholesterol) (anti-GBM nephritic mice) | Serum Parameter S-Cr (serum creatinine) (anti-GBM nephritic mice) | also measured |
| --- | --- | --- | --- | --- | --- | --- | --- | --- | --- |
| O=C(O)COc1cccc(CCNC(=O)/C=C/c2cccnc2)c1 [Compound 148] | 45% | 78.3% |  |  |  |  |  |  |  |
| COc1cc(CCN(C)C(=O)/C=C/c2cccnc2)ccc1O [Compound 73] | 78% | 84% | 22 | +++ | +++ | + | +++ | - |  |
| CCOC(=O)COc1cccc(CCNC(=O)/C=C/c2cccnc2)c1 [Compound 99] |  |  | 21 | +++ | +++ | + | - | ++ | glomerular TGF-β1 expression (TGF-β1; Experiment 1): tendency of inhibiting glomerular TGF-β1 expression; % inhibition of Index (TGF-β1; Experiment 1, 0.1 mg/kg): 15%; staining score (Index), glomerular TGF-β1 (TGF-β1; Experiment 1, 0.1 mg/kg): 0.17 ± 0.04; % inhibition of Index (TGF-β1; Experiment 1, 0.5 mg/kg): 35%; staining score (Index), glomerular TGF-β1 (TGF-β1; Experiment 1, 0.5 mg/kg): 0.13 ± 0.03; % inhibition of Index (TGF-β1; Experiment 1, 2.0 mg/kg): 45%; staining score (Index), glomerular TGF-β1 (TGF-β1; Experiment 1, 2.0 mg/kg): 0.11 ± 0.03; increase of Index (TGF-β1; Experiment 2): significantly inhibited the increase of Index; % inhibition of Index (TGF-β1; Experiment 2, 0.1 mg/kg): 29%; staining score (Index), glomerular TGF-β1 (TGF-β1; Experiment 2, 0.1 mg/kg): 0.29 ± 0.04; staining score (Index), glomerular TGF-β1 (TGF-β1; [1]): 0.18 ± 0.05; % inhibition of Index (TGF-β1; [1]): 56%; production of TGF-β1 in vivo (TGF-β1; Experiments 1 and 2, conclusion): inhibiting action on the production of TGF-β1 in vivo |
| COc1ccc(CCN(C)C(=O)/C=C/c2cncc(Cl)c2)cc1OC [Compound 29] |  | 32.6% | 16 | ++ | ++ | + | ++ | + |  |
| O=C(/C=C/c1cccnc1)NCCc1cccc(O)c1 [Compound 81, (E)-N-(3-hydroxyphenethyl)-3-(3-pyridyl)-2-propenoic acid amide] | 58% |  | 26 | +++ | +++ | +++ | +++ | ++ |  |
| COc1ccc(CCN(C)C(=O)/C=C/c2cccnc2)cc1OC [Compound 84, (E)-N-(3,4-dimethoxyphenethyl)-N-methyl-3-(3-pyridyl)-2-propenoic acid amide] | 40% | 85% | 23 | +++ | +++ | +++ | ++ | - |  |
| COc1ccc(CCN(C)C(=O)/C(C)=C/c2cccnc2)cc1OC [Compound 62] |  | 31.9% | 14 | - | +++ | ++ | +++ | + |  |
| COc1ccc(CCN(C)C(=S)/C=C/c2cccnc2)cc1OC [Compound 135, (E)-N-(3,4-dimethoxyphenethyl)-N-methyl-3-(3-pyridyl)-2-propenoic acid thioamide hydrochloride] |  | 47.1% | 6 | - | + | + | + | + |  |
| COc1ccc(CCN(C)C(=O)/C=C/c2cccnc2)cc1 [Compound 49] |  | 59% | 7 | - | + | + | + | ++ |  |
| COC(=O)c1cncc(/C=C/C(=O)N(C)CCc2ccc(OC)c(OC)c2)c1 [Compound 33] |  | 49.8% | 7 | ++ | ++ | - | ++ | + |  |
